Assay results: PMC3265452 (PLoS Neglected Tropical Diseases, 2012)
Counter-ions that a name gives are not always drawn. Like-named read-outs stand apart in the source and are kept apart here.

Molecular target: AaDOP2 (Aedes aegypti, UniProt H6D5H2)
Assay: AaDOP2 antagonist screen of the LOPAC1280 library (HEK-CRELuc-Aadop2 cells, luminescence)
Type: cell-based
Conditions: for inhibition at 10 µM: read-out: % of the SCH23390 effect (percent inhibition of receptor response relative to the SCH23390 control)
[1] = 10 µM compound, 300 nM dopamine, 2 hr, hit = compound effect <20

Chain of AaDOP2 (H6D5H2 1-476): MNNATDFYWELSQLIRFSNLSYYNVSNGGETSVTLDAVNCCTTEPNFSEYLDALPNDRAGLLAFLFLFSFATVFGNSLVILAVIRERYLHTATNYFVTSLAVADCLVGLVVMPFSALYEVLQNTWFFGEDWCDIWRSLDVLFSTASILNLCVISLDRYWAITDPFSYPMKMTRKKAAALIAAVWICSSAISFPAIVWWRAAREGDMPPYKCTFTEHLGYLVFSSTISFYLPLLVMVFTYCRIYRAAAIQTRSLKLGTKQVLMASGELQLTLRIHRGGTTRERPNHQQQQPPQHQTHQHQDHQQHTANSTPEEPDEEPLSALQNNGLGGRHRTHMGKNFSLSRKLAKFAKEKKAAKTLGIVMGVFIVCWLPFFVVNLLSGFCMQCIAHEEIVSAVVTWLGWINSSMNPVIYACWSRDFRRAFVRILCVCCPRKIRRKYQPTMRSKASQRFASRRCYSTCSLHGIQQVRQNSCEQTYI

| Compound | Compound effect (percent receptor signaling in presence of test compound, relative lux units relative to the SCH23390 control) | further results |
| --- | --- | --- |
| COc1ccc(/C=C/C(=O)Nc2ccccc2C(=O)O)cc1OC [Compound 1144, Tranilast] | 73 |  |
| CCN(CC)CCNC(=O)c1cc(S(C)(=O)=O)ccc1OC [Compound 1145, Tiapride hydrochloride] | 96 |  |
| NCCS(=O)(=O)O [Compound 1146, Taurine] | 101 |  |
| CN1CCN(CC/C=C2/c3ccccc3Sc3ccc(S(=O)(=O)N(C)C)cc32)CC1.Cl [Compound 1147, Thiothixene hydrochloride] |  | % of the SCH23390 effect (percent inhibition of receptor response relative to the SCH23390 control) (10 µM compound, 300 nM dopamine, 2 hr): 86%; Compound effect (percent receptor signaling in presence of test compound, relative lux units relative to the SCH23390 control) [1]: 14% |
| CCCCNC(=O)NS(=O)(=O)c1ccc(C)cc1 [Compound 1148, Tolbutamide] | 112 |  |
| CCN(CC)C(=S)SSC(=S)N(CC)CC [Compound 1149, Tetraethylthiuram disulfide] |  | Compound effect (percent receptor signaling in presence of test compound, relative lux units relative to the SCH23390 control) [1]: 89% |
| Clc1cnc(Oc2ccc(Oc3ncc(Cl)cc3Cl)cc2)c(Cl)c1 [Compound 1150, TCPOBOP] | 91 |  |
| CC(C)NP(=O)(NC(C)C)OP(=O)(NC(C)C)NC(C)C [Compound 1151, Tetraisopropyl pyrophosphoramide] | 111 |  |
| c1ccc(C2CN3CCSC3=N2)cc1 (centres unmarked) [Compound 1152, Tetramisole hydrochloride] | 118 |  |
| OC(CCN1CCCCC1)(c1ccccc1)C1CCCCC1 (centres unmarked) [Compound 1153, Trihexyphenidyl hydrochloride] | 92 |  |
| Cn1c(=O)c2[nH]cnc2n(C)c1=O [Compound 1154, Theophylline] | 98 |  |
| NC/C=C/C(=O)O [Compound 1155, (E)-4-amino-2-butenoic acid] | 126 |  |
| CCCCCCCCCCCCCCSCC(=O)O [Compound 1156, Tetradecylthioacetic acid] | 101 |  |
| COc1cc2c(cc1OC)-c1c/c(=N\c3c(C)cc(C)cc3C)n(C)c(=O)n1CC2 [Compound 1157, Trequinsin hydrochloride] | 133 |  |
| CC(C)(C)c1cc(/C=C(\C#N)C(N)=S)cc(C(C)(C)C)c1O [Compound 1158, Tyrphostin AG 879] | 33 |  |
| CC[N+](CC)(CC)CC [Compound 1159, Tetraethylammonium chloride] | 108 |  |
| Cc1ccc(S(=O)(=O)NC(=O)NN2CCCCCC2)cc1 [Compound 1160, Tolazamide] | 107 |  |
| CC(C)(C)NCC(O)c1cc(O)cc(O)c1.CC(C)(C)NCC(O)c1cc(O)cc(O)c1.O=S(=O)(O)O (centres unmarked) [Compound 1161, Terbutaline hemisulfate] |  | Compound effect (percent receptor signaling in presence of test compound, relative lux units relative to the SCH23390 control) [1]: 119% |
| CN(C)CCCN1c2ccccc2Sc2ccc(C(F)(F)F)cc21 [Compound 1163, Triflupromazine hydrochloride] | 12 | inhibition at 10 µM: 88% |

| Compound | Compound effect (percent receptor signaling in presence of test compound, relative lux units relative to the SCH23390 control) | further results |
| --- | --- | --- |
| CC(CN(C)C)CN1c2ccccc2CCc2ccccc21 (centres unmarked) [Compound 1164, Trimipramine maleate] | 13 | inhibition at 10 µM: 87% |
| N#C/C(=C\c1ccc(O)c(O)c1)C(=O)NCc1ccccc1 [Compound 1165, Tyrphostin AG 490] | 96 |  |
| C/C(=C\c1ccc(C(=O)O)cc1)c1ccc2c(c1)C(C)(C)CCC2(C)C [Compound 1166, TTNPB] |  | Compound effect (percent receptor signaling in presence of test compound, relative lux units relative to the SCH23390 control) [1]: 98% |
| COc1cc2nc(N3CCN(C(=O)OCc4ccccc4)[C@H](C(=O)NC(C)(C)C)C3)nc(N)c2cc1OC [Compound 1167, L-765,314] | 112 |  |
| Nc1nc(N)c2nc(-c3ccccc3)c(N)nc2n1 [Compound 1168, Triamterene] | 115 |  |
| COc1cc2ncnc(Nc3cccc(Cl)c3)c2cc1OC [Compound 1169, Tyrphostin AG 1478] | 88 |  |
| c1ccc2c(c1)CCCC2C1=NCCN1 (centres unmarked) [Compound 1170, Tetrahydrozoline hydrochloride] | 102 |  |
| N#C/C(=C\c1ccc(O)c(O)c1)C(=O)Nc1ccccc1 [Compound 1171, Tyrphostin AG 494] | 83 |  |
| Cc1ccc(S(=O)(=O)N[C@@H](Cc2ccccc2)C(=O)CCl)cc1 [Compound 1172, N-p-Tosyl-L-phenylalanine chloromethyl ketone] |  | Compound effect (percent receptor signaling in presence of test compound, relative lux units relative to the SCH23390 control) [1]: 83% |
| CC(O)C(O)[C@H]1CNc2nc(N)[nH]c(=O)c2N1.Cl.Cl (stereo partly drawn) [Compound 1173, (6R)-5,6,7,8-Tetrahydro-L-biopterin hydrochloride] |  | Compound effect (percent receptor signaling in presence of test compound, relative lux units relative to the SCH23390 control) [1]: 109% |
| C[C@@H](NC(=O)/C(C#N)=C/c1ccc(O)c(O)c1)c1ccccc1 [Compound 1174, Tyrphostin AG 527] | 81 |  |
| Cn1cnc2c1c(=O)[nH]c(=O)n2C [Compound 1175, Theobromine] | 110 |  |
| N#C/C(=C\c1ccc(O)c(O)c1)C(=O)N1CCc2ccccc21 [Compound 1177, Tyrphostin AG 528] | 78 |  |
| COc1cc2nc(N3CCN(C(=O)C4CCCO4)CC3)nc(N)c2cc1OC (centres unmarked) [Compound 1178, Terazosin hydrochloride] | 107 |  |
| N#C/C(=C\c1ccc(O)c(O)c1)C(=O)NCCCNC(=O)/C(C#N)=C/c1ccc(O)c(O)c1 [Compound 1179, Tyrphostin AG 537] | 112 |  |
| N#C/C(=C\c1ccc(O)c(O)c1)C(=O)NCCCc1ccccc1 [Compound 1180, Tyrphostin AG 555] | 77 |  |
| N#C/C(=C\c1ccc(O)c(O)c1)C(=O)NCCc1ccccc1 [Compound 1181, Tyrphostin AG 698] | 82 |  |
| N#C/C(=C\c1c[nH]c2ccccc12)C(=O)c1ccc(O)c(O)c1 [Compound 1182, Tyrphostin AG 808] | 101 |  |
| CC(C)(C)NCC(O)c1ccccc1Cl (centres unmarked) [Compound 1187, Tulobuterol hydrochloride] | 104 |  |
